{"source": "patent US7071165B2", "about": "“LHRH antagonist peptides” (Indiana University Research and Technology Corporation, priority 1995, dated 2006)", "system": "ovulation in female rats", "experiment": "Anti-ovulatory activity (AOA) in vivo assay in rats", "parameters": "species or system rat", "details": "for AO activity (AOA), in words: rat, in vivo", "description": "As used herein, “LHRH antagonist peptide” is intended to include peptides and peptide analogs which inhibit LHRH activity (i.e., has “LHRH antagonist activity”) in vivo or in vitro. Candidate LHRH antagonist peptides can be assayed, for example, in the animal model described in Corbin and Beattie, Endocrine Res. Commun. 2:1 (1975) (and see infra). In this assay, the LHRH antagonistic activity of a candidate compound is assayed by measuring the antiovulatory activity (AOA) of the compound in rats.\nAnti-ovulatory activity (AOA) was measured by an in vivo assay in rats, as described in Corbin and Beattie, Endocrine Res. Commun. 2:1 (1975). In brief, female rats are injected with a candidate LHRH antagonist on the day of proestrus; in general, the candidate LHRH antagonist was dissolved in 0.1% DMSO. The ability of the candidate peptide to inhibit ovulation is measured by determining the number of rats which ovulate. A candidate peptide is considered to have LHRH antagonist qualities if it inhibits ovulation in at least 50% of the treated rats at a dose of 5 μg per rat. Preferred LHRH antagonists inhibit ovulation in at least 50% of rats at a dose of 2 μg per rat, more preferably at a dose of […], and still more preferably at a dose of 0.5 μg per rat."}
{"substance": "Ac-D-Nal^1, 4-Cl-D-Phe^2, D-Phe^2, D-Pal^3, Ala^5, D-Pal(iPr)^6, Lys(iPr)^8, D-Ala^10-LHRH.2TFA [Compound 3756]", "values": [{"measurement": "AO activity (AOA): rats which ovulate / rats treated", "setting": "dose 1 μg per rat", "value": "6/8@1.0"}]}
{"substance": "Ac-D-Nal^1, 4-Cl-D-Phe^2, D-Pal^3, His^5D-Pal(iPr)^6, Lys(iPr)^8, D-Ala^10-LHRH.2TFA [Compound 3754]", "values": [{"measurement": "AO activity (AOA): rats which ovulate / rats treated", "setting": "dose 1 μg per rat", "value": "5/8@1.0"}]}
{"substance": "Ac-D-Nal^1, 4-Cl-D-Phe^2, D-Trp^3, D-Met^6, D-Ala^10-LHRH.TFA [Compound 3881]", "values": [{"measurement": "AO activity (AOA): rats which ovulate / rats treated", "setting": "dose 1 μg per rat", "value": "7/8@1.0"}]}
{"substance": "Ac-D-Nal^1, 4-Cl-D-Phe^2, D-Pal^3, D-Lys(Gulonyl)^6, Lys(iPr)^8, D-Ala^10-LHRH.TFA [Compound 3506]", "values": [{"measurement": "AO activity (AOA): rats which ovulate / rats treated", "setting": "dose 1 μg per rat", "value": "4/8@1 μg"}]}
{"substance": "Ac-D-Nal^1, 4-Cl-D-Phe^2, D-Pal^3, N-Me-Tyr^5, D-Lys(Ac)^6, Lys(iPr)^8, D-Ala^10-LHRH.TFA [Compound 3829]", "values": [{"measurement": "AO activity (AOA): rats which ovulate / rats treated", "setting": "dose 1 μg per rat", "value": "8/8@1.0"}]}
{"substance": "Ac-D-Nal^1, 4-Cl-D-Phe^2, D-Pal^3, Lys(TFAc)^6, Lys(iPr)^8, D-Ala^10-LHRH.2TFA [Compound 3546]", "values": [{"measurement": "AO activity (AOA): rats which ovulate / rats treated", "setting": "dose 1 μg per rat", "value": "6/8@1 μg"}]}
{"substance": "Ac-D-Nal^1, 4-Cl-D-Phe^2, D-Trp^3, D-Lys(COCH2Br)^6, D-Ala^10-LHRH.TFA [Compound 3948]", "values": [{"measurement": "AO activity (AOA), in words", "value": "low activity"}]}
{"substance": "Ac-D-Nal^1, 4-Cl-D-Phe^2, D-Trp^3, D-Met(S^+CH2C6H5)^6, D-Ala^10-LHRH.2TFA [Compound 3961]", "values": [{"measurement": "AO activity (AOA): rats which ovulate / rats treated", "setting": "dose 1 μg per rat", "value": "3/8@1.00"}, {"measurement": "AO activity (AOA): rats which ovulate / rats treated", "setting": "dose 2 μg per rat", "value": "4/8@2.00"}]}
{"substance": "Ac-D-Nal^1, 4-Cl-D-Phe^2, D-Pal^3, D-Pal(1-Bu)^6, Lys(iPr)^8, D-Ala^10-LHRH.TFA [Compound 3428]", "values": [{"measurement": "AO activity (AOA): rats which ovulate / rats treated", "setting": "dose 1 μg per rat", "value": "1/8@1 μg"}]}
{"substance": "Ac-D-Nal^1, 4-Cl-D-Phe^2, D-Pal^3, D-Lys(COCH2CH2N(Et)2)^6, D-Ala^10-LHRH.2TFA [Compound 3949]", "values": [{"measurement": "AO activity (AOA), in words", "value": "low activity"}]}
{"substance": "Ac-D-Nal^1, 4-Cl-D-Phe^2, D-Pal^3, Lys(ClNic)^5, D-Lys(ClNic)^6, Lys(iPr)^8, D-Ala^10-LHRH.2TFA [Compound 3544]", "values": [{"measurement": "AO activity (AOA): rats which ovulate / rats treated", "setting": "dose 1 μg per rat", "value": "6/8@1 μg"}]}
{"substance": "Ac-D-Nal^1, 4-Cl-D-Phe^2, D-Pal^3, D-Lys(Hippic)^6, Lys(iPr)^8, D-Ala^10-LHRH.TFA [Compound 3758]", "values": [{"measurement": "AO activity (AOA): rats which ovulate / rats treated", "setting": "dose 1 μg per rat", "value": "5/8@1.0"}]}
{"substance": "Ac-D-Nal^1, 4-Cl-D-Phe^2, D-Pal^3, Lys(Otac)^5, D-Lys(Otac)^6, Lys(iPr)^8, D-Ala^10-LHRH.TFA [Compound 3502]", "values": [{"measurement": "AO activity (AOA): rats which ovulate / rats treated", "setting": "dose 1 μg per rat", "value": "6/8@1 μg"}]}
{"substance": "Ac-D-Nal-4-Cl-D-Phe^2, D-Pal^3, D-Lys(Ac-D-Nal^1 , 4-Cl-D-Phe^2, D-Pal^3, Ser)^6, Lys(iPr)^8, D-Ala^10-LHRH.TFA [Compound 3722]", "values": [{"measurement": "AO activity (AOA): rats which ovulate / rats treated", "setting": "dose 5 μg per rat", "value": "8/8@5.0"}]}
{"substance": "Ac-D-Nal^1, 4-Cl-D-Phe^2, D-Pal^3, Lys^5, D-Pal(iPr)^6, Lys(iPr)^8, D-Ala^10-LHRH.4TFA [Compound 3548]", "values": [{"measurement": "AO activity (AOA): rats which ovulate / rats treated", "setting": "dose 1 μg per rat", "value": "6/8@1 μg"}]}
{"substance": "Lys(COCH2Br)^8-LHRH [Compound 3942]", "values": [{"measurement": "AO activity (AOA): rats which ovulate / rats treated", "setting": "dose 50 μg per rat", "value": "8/8@50.0"}]}
{"substance": "Ac-D-Nal^1, 4-Cl-D-Phe^2, D-Pal^3, D-Lys(Dodac)^6, Lys(iPr)^8, D-Ala^10-LHRH.TFA [Compound 3803]", "values": [{"measurement": "AO activity (AOA): rats which ovulate / rats treated", "setting": "dose 1 μg per rat", "value": "2/8@1.0"}]}
{"substance": "Ac-D-Nal^1, 4-Cl-D-Phe^2, D-Pal^3, D-Glu(PEG)^6, Lys(iPr)^8, D-Ala^10-LHRH.2TFA [Compound 3542]", "values": [{"measurement": "AO activity (AOA): rats which ovulate / rats treated", "setting": "dose 2 μg per rat", "value": "7/8@2 μg"}]}
{"substance": "Ac-D-Nal^1, 4-Cl-D-Phe^2, D-Pal^3, D-Arg^6, Lys(COCH2S^+Me2)^8, D-Ala^10-LHRH.2TFA [Compound 4015]", "values": [{"measurement": "AO activity (AOA): rats which ovulate / rats treated", "setting": "dose 1 μg per rat", "value": "1/8@1.00"}]}
{"substance": "Ac-D-Qal^1, 4-Cl-D-Phe^2, D-Pal^3, D-Lys(Otac)^6, Lys(iPr)^8, D-Ala^10-LHRH.TFA [Compound 3802]", "values": [{"measurement": "AO activity (AOA): rats which ovulate / rats treated", "setting": "dose 1 μg per rat", "value": "5/8@1.0"}]}
{"substance": "Ac-D-Nal^1, 4-Cl-D-Phe^2, D-Pal^3, D-Glu(Amp)^6, Lys(iPr)^8, D-Ala^10-LHRH.TFA [Compound 3511]", "values": [{"measurement": "AO activity (AOA): rats which ovulate / rats treated", "setting": "dose 1 μg per rat", "value": "7/8@1 μg"}]}
{"substance": "Ac-D-Nal^1, 4-Cl-D-Phe^2, D-Pal^3, Lys(ONic)^5, D-Lys(ONic)^6, Lys(iPr)^8, D-Ala^10-LHRH.TFA [Compound 3503]", "values": [{"measurement": "AO activity (AOA): rats which ovulate / rats treated", "setting": "dose 1 μg per rat", "value": "6/8@1 μg"}]}
{"substance": "Ac-D-Nal^1, 4-Cl-D-Phe^2, D-Pal^3, D-Lys(2-pyrimidylthio)acetic)^6, Lys(iPr)^8, D-Ala^10-LHRH.TFA [Compound 3960]", "values": [{"measurement": "AO activity (AOA): rats which ovulate / rats treated", "setting": "dose 1 μg per rat", "value": "5/8@1.00"}]}
{"substance": "Ac-D-Nal^1, 4-Cl-D-Phe^2, D-Pal^3, D-Lys(AcGly)^6, Lys(iPr)^8, D-Ala^10-LHRH.TFA [Compound 3759]", "values": [{"measurement": "AO activity (AOA): rats which ovulate / rats treated", "setting": "dose 1 μg per rat", "value": "5/8@1.0"}]}
{"substance": "Ac-D-Nal^1, 4-Cl-D-Phe^2, D-Pal^3, Lys(iPr)^5, D-Trp^6, Trp^7,Orn^8, D-Ala^10-LHRH.TFA [Compound 3855]", "values": [{"measurement": "AO activity (AOA): rats which ovulate / rats treated", "setting": "dose 1 μg per rat", "value": "4/8@1.0"}]}
{"substance": "Ac-D-Nal^1, 4-Cl-D-Phe^2, D-Pal^3, Lys(iPr)^5, D-His^6, Trp^7, Orn^8, D-Ala^10-LHRH.TFA [Compound 3852]", "values": [{"measurement": "AO activity (AOA): rats which ovulate / rats treated", "setting": "dose 5 μg per rat", "value": "8/8@5.0"}]}
{"substance": "Ac-D-Nal^1, 4-Cl-D-Phe^2, D-Pal^3, D-Lys(ONic)^6, Lys(iPr)^8, D-Ala^10-LHRH.TFA [Compound 3507]", "values": [{"measurement": "AO activity (AOA): rats which ovulate / rats treated", "setting": "dose 1 μg per rat", "value": "1/8@μg"}, {"measurement": "AO activity (AOA), in words", "value": "high AOA"}]}
{"substance": "Ac-D-Nal^1, 4-Cl-D-Phe^2, D-Pal^3, Lys(CNa)^5, D-Lys(CNa)^6, Lys(iPr)^8, D-Ala^10-LHRH.2TFA [Compound 3551]", "values": [{"measurement": "AO activity (AOA): rats which ovulate / rats treated", "setting": "dose 1 μg per rat", "value": "6/8@1 μg"}]}
{"substance": "Ac-D-Nal^1, 4-Cl-D-Phe^2, D-Pal^3, D-Lys(3-Δ-Pro)^6, Lys(iPr)^8, D-Ala^10-LHRH-TFA [Compound 3721]", "values": [{"measurement": "AO activity (AOA): rats which ovulate / rats treated", "setting": "dose 1 μg per rat", "value": "4/8@1.0"}]}
{"substance": "Ac-D-Nal^1, 4-Cl-D-Phe^2, D-Trp^3, D-Met(S^+CH2—CH═CH2)^6, D-Ala^10-LHRH.2TFA [Compound 3984]", "values": [{"measurement": "AO activity (AOA): rats which ovulate / rats treated", "setting": "dose 1 μg per rat", "value": "3/8@1.00"}]}
{"substance": "Ac-D-Nal^1, 4-Cl-D-Phe^2, D-Pal^3, Asn^5, D-Pal(iPr)^6, Lys(iPr)^8, D-Ala^10-LHRH.2TFA [Compound 3744]", "values": [{"measurement": "AO activity (AOA): rats which ovulate / rats treated", "setting": "dose 1 μg per rat", "value": "7/8@1.0"}]}
{"substance": "Ac-D-Nal^1, 4-Cl-D-Phe^2, D-Pal^3, Ser^5, D-Pal(iPr)^6, Lys(iPr)^8, D-Ala^10-LHRH.2TFA [Compound 3743]", "values": [{"measurement": "AO activity (AOA): rats which ovulate / rats treated", "setting": "dose 1 μg per rat", "value": "8/8@1.0"}]}
{"substance": "Ac-D-Nal^1, 4-Cl-D-Phe^2, D-Pal^3, D-Lys(HomoPro)^6, Lys(iPr)^8, D-Ala^10-LHRH.TFA [Compound 3439]", "values": [{"measurement": "AO activity (AOA): rats which ovulate / rats treated", "setting": "dose 1 μg per rat", "value": "2/8@1 μg"}]}
{"substance": "Ac-D-Nal^1, 4-Cl-D-Phe^2, D-Pal^3, D-Lys(iPr)^5, D-Lys(TFAc)^6, Lys(iPr)^8, D-Ala^10-LHRH.2TFA [Compound 3753]", "values": [{"measurement": "AO activity (AOA): rats which ovulate / rats treated", "setting": "dose 1 μg per rat", "value": "7/8@1.0"}]}
{"substance": "Ac-D-Qal^1, 4-Cl-D-Phe^2, D-Pal^3, D-Lys(Ac)^6, Lys(iPr)^8, D-Ala^10-LHRH.TFA [Compound 3740]", "values": [{"measurement": "AO activity (AOA): rats which ovulate / rats treated", "setting": "dose 1 μg per rat", "value": "6/8@1.0"}]}
{"substance": "Ac-D-Nal^1, 4-Cl-D-Phe^2, D-Pal^3, D-Dap(COCH2S^+Me2)^6, D-Ala^10-LHRH.2TFA [Compound 3969]", "values": [{"measurement": "AO activity (AOA): rats which ovulate / rats treated", "setting": "dose 1 μg per rat", "value": "3/8@1.00"}]}
{"substance": "Ac-D-Qal^1, 4-Cl-D-Phe^2, D-Pal^3, D-Lys(Ppic)^6, Lys(iPr)^8, D-Ala^10-LHRH.TFA [Compound 3787]", "values": [{"measurement": "AO activity (AOA): rats which ovulate / rats treated", "setting": "dose 1 μg per rat", "value": "7/8@1.0"}]}
